In patent US20210038607A1, “OXADIAZOLYLTHIOPHENE DERIVATIVES USEFUL AS HISTONE DEACETYLASE INHIBITORS” (Karus Therapeutics Limited, priority 2018, published 2021):

Tests used:
[1] = biological target: T1, Complex of human HDAC3 and human NCOR2 (Homo sapiens, UniProt O15379); assay: HDAC3 biochemical assay, AMC-labeled peptide substrate; settings: read-out: HDAC Isoform IC50 (nM) 3
T1 construct: full length with C-terminal His tag, MW=49.7 kDa; His (C); host or cells: baculovirus expression system (co-expressed)
T1 sequence (O15379 whole entry, canonical isoform): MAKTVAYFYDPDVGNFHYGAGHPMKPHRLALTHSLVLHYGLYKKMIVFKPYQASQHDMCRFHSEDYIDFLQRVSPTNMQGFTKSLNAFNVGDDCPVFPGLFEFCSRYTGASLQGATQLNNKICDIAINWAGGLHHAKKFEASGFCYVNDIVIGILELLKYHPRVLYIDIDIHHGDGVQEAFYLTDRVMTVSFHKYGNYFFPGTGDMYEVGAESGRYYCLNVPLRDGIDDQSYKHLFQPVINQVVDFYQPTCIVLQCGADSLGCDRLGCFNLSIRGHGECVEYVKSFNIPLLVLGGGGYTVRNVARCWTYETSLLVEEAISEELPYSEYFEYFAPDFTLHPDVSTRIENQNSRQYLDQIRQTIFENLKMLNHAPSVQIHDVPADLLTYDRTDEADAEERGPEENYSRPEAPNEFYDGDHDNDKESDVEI
T1 sequence (Q9Y618 395-489 partner limits assumed): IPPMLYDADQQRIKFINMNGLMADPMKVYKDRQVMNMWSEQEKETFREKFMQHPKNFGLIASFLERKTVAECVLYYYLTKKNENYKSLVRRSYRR
Procedure: (§1) Activity against all zinc-dependent HDACs 1 to 11 was assessed by using an acetylated AMC-labeled peptide substrate. The substrate RHKK(Ac)AMC was used for HDAC1, HDAC2, HDAC3, HDAC6 and HDAC10; the substrate used for HDAC8 was RHK(Ac)K(Ac)AMC. Activity against the class IIa HDACs (HDAC4, 5, 7, 9) and HDAC11 was determined using a class IIa-specific substrate, BOC-Lys(trifluoroacetyl)-AMC (“Trifluoroacetyl Lysine”; see Lahm et al, 2007, PNAS, 104, 17335-17340). All assays were based on the AMC-labeled substrate and developer combination.
(§2) The protocol involved a two-step reaction: first, the substrate with the acetylated lysine side chain is incubated with a sample containing HDAC activity, to produce the deacetylated products, which are then digested in the second step by the addition of developer to produce the fluorescent signal proportional to the amount of deacetylated substrates.
Complex of human HDAC3 (GenBank Accession No. NM_003883), full length with C-terminal His tag, MW=49.7 kDa, and human NCOR2 (amino acid 395-489) (GenBank Accession No. NM_006312), N-terminal GST tag, MW=37.6 kDa, co-expressed in baculovirus expression system.
(§3) Assay Buffer: 50 mM Tris-HCl, pH8.0, 137 mM NaCl, 2.7 mM KCl, 1 mM MgC2. Before use, 1 mg/mL BSA and DMSO are added.
HDAC3: 0.1 ng/ul HDAC3 and 50 μM HDAC substrate are in the reaction buffer with 1% DMSO final. Incubate for 1 hour at 30° C.
(§4) Stage 1: Deacetylation of substrate by incubation of HDAC enzymes with compounds
(§5) Stage 2: Development by addition of Developer to digest the deacetylated substrate, and generate the fluorescent colour; Detection: 360/460 Ex/Em

[2] = biological target: T2, Recombinant human HDAC6 (Homo sapiens, UniProt Q9UBN7); assay: HDAC6 biochemical assay, AMC-labeled peptide substrate; settings: HDAC6; read-out: HDAC Isoform IC50 (nM) 6
T2 construct: full length, MW=159 kDa; GST (N); host or cells: Sf9 insect cells (baculovirus)
T2 sequence (Q9UBN7 1-1215): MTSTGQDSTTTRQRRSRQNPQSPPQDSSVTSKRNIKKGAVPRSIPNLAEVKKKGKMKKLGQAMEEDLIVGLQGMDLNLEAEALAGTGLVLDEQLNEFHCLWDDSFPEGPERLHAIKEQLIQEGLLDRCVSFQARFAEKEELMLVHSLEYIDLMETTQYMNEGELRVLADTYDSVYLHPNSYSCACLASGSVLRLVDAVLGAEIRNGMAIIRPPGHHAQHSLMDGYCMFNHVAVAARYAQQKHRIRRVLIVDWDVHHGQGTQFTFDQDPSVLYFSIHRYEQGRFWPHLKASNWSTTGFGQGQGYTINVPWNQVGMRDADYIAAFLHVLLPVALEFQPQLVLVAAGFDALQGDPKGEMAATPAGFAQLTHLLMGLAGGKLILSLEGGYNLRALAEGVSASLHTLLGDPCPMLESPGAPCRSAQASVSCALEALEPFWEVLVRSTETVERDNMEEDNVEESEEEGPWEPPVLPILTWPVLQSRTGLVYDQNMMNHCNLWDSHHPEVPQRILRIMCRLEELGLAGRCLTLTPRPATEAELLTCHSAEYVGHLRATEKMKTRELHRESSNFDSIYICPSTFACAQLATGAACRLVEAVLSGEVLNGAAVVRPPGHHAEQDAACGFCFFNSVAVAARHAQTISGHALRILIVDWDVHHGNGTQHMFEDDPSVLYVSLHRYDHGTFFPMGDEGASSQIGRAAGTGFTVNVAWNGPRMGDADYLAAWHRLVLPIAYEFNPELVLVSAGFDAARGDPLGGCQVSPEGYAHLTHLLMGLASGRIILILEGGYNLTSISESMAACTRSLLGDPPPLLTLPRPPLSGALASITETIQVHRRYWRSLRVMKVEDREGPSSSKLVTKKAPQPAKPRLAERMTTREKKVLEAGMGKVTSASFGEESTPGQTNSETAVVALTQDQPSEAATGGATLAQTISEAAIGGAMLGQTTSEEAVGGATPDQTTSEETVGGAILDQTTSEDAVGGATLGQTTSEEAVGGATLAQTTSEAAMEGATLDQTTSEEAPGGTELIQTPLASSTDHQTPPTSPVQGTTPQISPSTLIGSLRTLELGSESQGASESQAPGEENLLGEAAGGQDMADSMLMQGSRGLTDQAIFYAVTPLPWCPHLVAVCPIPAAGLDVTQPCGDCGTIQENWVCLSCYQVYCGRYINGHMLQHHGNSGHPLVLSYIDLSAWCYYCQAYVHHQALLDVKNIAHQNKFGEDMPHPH
How it was run: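 Two-step fluorogenic read-out: enzyme deacetylates 50 μM RHKK(Ac)AMC for 1 h at 30° C in pH 8.0 Tris buffer with BSA and 1% DMSO, then developer cleavage gives signal at Ex 360/Em 460. Enzyme: 0.3 ng/ul recombinant full-length human HDAC6, GST-tagged, Sf9-expressed.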

[3] = biological target: T3, Human HDAC8 (Homo sapiens, UniProt Q9BY41); assay: HDAC8 biochemical assay, AMC-labeled peptide substrate; settings: read-out: HDAC Isoform IC50 (nM) 8
T3 construct: full length with C-terminal His tag, MW=42.6 kDa; His (C); host or cells: baculovirus expression system
T3 sequence (Q9BY41 1-377): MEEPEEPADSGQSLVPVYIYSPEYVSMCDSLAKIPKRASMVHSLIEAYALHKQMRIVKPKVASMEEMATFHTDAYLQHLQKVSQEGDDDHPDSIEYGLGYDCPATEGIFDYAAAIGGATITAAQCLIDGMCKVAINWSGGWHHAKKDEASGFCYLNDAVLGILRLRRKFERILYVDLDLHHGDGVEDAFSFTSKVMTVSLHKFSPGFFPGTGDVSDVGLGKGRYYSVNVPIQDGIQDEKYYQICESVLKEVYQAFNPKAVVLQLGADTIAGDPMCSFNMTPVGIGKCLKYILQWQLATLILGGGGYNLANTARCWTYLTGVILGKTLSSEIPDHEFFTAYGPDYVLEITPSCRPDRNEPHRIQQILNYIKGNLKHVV
Procedure: as §1, §2
Human HDAC8 (GenBankAccession No. NM_018486), full length with C-terminal His tag, MW=42.6 kDa, expressed in a baculovirus expression system.
as §3
HDAC8: 1 ng/ul HDAC8 and 100 µM HDAC8 substrate are in the reaction buffer with 1% DMSO final. Incubate for 2 hours at 30° C.
as §4, §5

SMILES | IC50 [1] [nM] | IC50 [2] [nM] | IC50 [3] [nM]
O=C(c1cnnc(N(Cc2ccc(-c3noc(C(F)(F)F)n3)s2)c2cnccn2)c1)N1CC(C(F)(F)F)C1 [Example GJ, N-(Pyrazin-2-yl)-N-({5-[5-(trifluoromethyl)-1,2,4-oxadiazol-3-yl]thiophen-2-yl}methyl)-5-[3-(trifluoromethyl)azetidine-1-carbonyl]pyridazin-3-amine] | ≤ 10000 | ≤ 500 | ≤ 10000
FC(F)(F)c1nc(-c2ccc(CN(c3cnccn3)c3cc(-c4ccccn4)cnn3)s2)no1 [Example GM, N-(Pyrazin-2-yl)-5-(pyridin-2-yl)-N-({5-[5-(trifluoromethyl)-1,2,4-oxadiazol-3-yl]thiophen-2-yl}methyl)pyridazin-3-amine] | > 10000 | ≤ 500 | ≤ 10000
O=C(c1cnnc(N(Cc2ccc(-c3noc(C(F)(F)F)n3)s2)c2cnccn2)c1)N1CCC1 [Example FS, 5-(Azetidine-1-carbonyl)-N-(pyrazin-2-yl)-N-({5-[5-(trifluoromethyl)-1,2,4-oxadiazol-3-yl]thiophen-2-yl}methyl)pyridazin-3-amine] | > 10000 | ≤ 500 | ≤ 10000
Cc1cnc(N(Cc2ccc(-c3noc(C(F)(F)F)n3)s2)c2cnccn2)cn1 [Example BH, 5-Methyl-N-(pyrazin-2-yl)-N-({5-[5-(trifluoromethyl)-1,2,4-oxadiazol-3-yl]thiophen-2-yl}methyl)pyrazin-2-amine] | > 10000 | ≤ 500 | ≤ 10000
COC1CN(Cc2ccnc(N(Cc3ccc(-c4noc(C(F)(F)F)n4)s3)c3cnccn3)c2)C1 [Example GH, N-{4-[(3-Methoxyazetidin-1-yl)methyl]pyridin-2-yl}-N-({5-[5-(trifluoromethyl)-1,2,4-oxadiazol-3-yl]thiophen-2-yl}methyl)pyrazin-2-amine] | > 10000 | ≤ 500 | ≤ 10000
O=C(c1cnnc(N(Cc2ccc(-c3noc(C(F)(F)F)n3)s2)c2cnccn2)c1)N1C[C@@H]2C[C@H]1CO2 [Example FV, 5-[(1S,4S)-2-Oxa-5-azabicyclo[2.2.1]heptane-5-carbonyl]-N-(pyrazin-2-yl)-N-({5-[5-(trifluoromethyl)-1,2,4-oxadiazol-3-yl]thiophen-2-yl}methyl)pyridazin-3-amine] | > 10000 | ≤ 500 | ≤ 10000
O=C(O)c1cnnc(N(Cc2sc(-c3noc(C(F)(F)F)n3)cc2F)c2cnccn2)c1 [Example FA, 6-[({3-fluoro-5-[5-(trifluoromethyl)-1,2,4-oxadiazol-3-yl]thiophen-2-yl}methyl)(pyrazin-2-yl)amino]pyridazine-4-carboxylic acid] | ≤ 10000 | ≤ 500 | ≤ 10000
OC1(c2cnnc(N(Cc3ccc(-c4noc(C(F)(F)F)n4)s3)c3cnccn3)c2)COC1 [Example GW, 3-{6-[(Pyrazin-2-yl)({5-[5-(trifluoromethyl)-1,2,4-oxadiazol-3-yl]thiophen-2-yl}methyl)amino]pyridazin-4-yl}oxetan-3-ol] | > 10000 | ≤ 500 | ≤ 10000
CNC(=O)c1ccc(N(Cc2ccc(-c3noc(C(F)(F)F)n3)s2)c2cnccn2)nn1 [Example FC, N-Methyl-6-[(pyrazin-2-yl)({5-[5-(trifluoromethyl)-1,2,4-oxadiazol-3-yl]thiophen-2-yl}methyl)amino]pyridazine-3-carboxamide] | ≤ 10000 | ≤ 500 | ≤ 10000
CC(C)OC1CN(C(=O)c2cnnc(N(Cc3ccc(-c4noc(C(F)(F)F)n4)s3)c3cnccn3)c2)C1 [Example GC, 5-[3-(Propan-2-yloxy)azetidine-1-carbonyl]-N-(pyrazin-2-yl)-N-({5-[5-(trifluoromethyl)-1,2,4-oxadiazol-3-yl]thiophen-2-yl}methyl)pyridazin-3-amine] | > 10000 | ≤ 500 | ≤ 10000
Fc1ccnc(N(Cc2ccc(-c3noc(C(F)(F)F)n3)s2)c2cnccn2)c1 [Example AG, N-(4-Fluoropyridin-2-yl)-N-({5-[5-(trifluoromethyl)-1,2,4-oxadiazol-3-yl]thiophen-2-yl}methyl)pyrazin-2-amine] | > 10000 | ≤ 500 | ≤ 10000
COC1(C(F)(F)F)CN(C(=O)c2cnnc(N(Cc3ccc(-c4noc(C(F)(F)F)n4)s3)c3cnccn3)c2)C1 [Example GL, 5-[3-Methoxy-3-(trifluoromethyl)azetidine-1-carbonyl]-N-(pyrazin-2-yl)-N-({5-[5-(trifluoromethyl)-1,2,4-oxadiazol-3-yl]thiophen-2-yl}methyl)pyridazin-3-amine] | ≤ 10000 | ≤ 500 | ≤ 10000
FC(F)(F)c1cnnc(N(Cc2ccc(-c3noc(C(F)(F)F)n3)s2)c2cc(C(F)(F)F)cnn2)c1 [Example EU, 5-(Trifluoromethyl)-N-({5-[5-(trifluoromethyl)-1,2,4-oxadiazol-3-yl]thiophen-2-yl}methyl)-N-[5-(trifluoromethyl)pyridazin-3-yl]pyridazin-3-amine] |  | ≤ 500 | 
FC(F)(F)c1cnnc(N(Cc2ccc(-c3noc(C(F)(F)F)n3)s2)c2cccnn2)c1 [Example ER, N-(Pyridazin-3-yl)-5-(trifluoromethyl)-N-({5-[5-(trifluoromethyl)-1,2,4-oxadiazol-3-yl]thiophen-2-yl}methyl)pyridazin-3-amine] |  | ≤ 500 | 
COc1cncc(N(Cc2ccc(-c3noc(C(F)(F)F)n3)s2)c2cc(C(F)(F)F)cnn2)n1 [Example EN, N-(6-Methoxypyrazin-2-yl)-5-(trifluoromethyl)-N-({5-[5-(trifluoromethyl)-1,2,4-oxadiazol-3-yl]thiophen-2-yl}methyl)pyridazin-3-amine] |  | ≤ 500 | 
